According to patent US6544930B2, “Compact storage and shipping system for glyphosate herbicide” (Monsanto Technology LLC, priority 1998, dated 2003):
Counter-ions that a name gives are not always drawn.

What was measured:
[1] = Specific gravity / density of aqueous glyphosate salt solutions and compositions (Mettler DA-300 meter); assay type: physicochemical
Description: Specific gravities are measured using a Mettler DA-300 Density/Specific Gravity Meter.
In a 1 liter glass vessel with magnetic stirrer are mixed 479.2 g glyphosate acid, technical grade (assay 96%), 166.0 g monoethanolamine and water to 1000 g. Reaction of the glyphosate acid with the monoethanolamine to form the MEA salt of glyphosate is exothermic. The reaction mixture is allowed to cool to room temperature. […] The density of the solution at 25° C. is […], thus the volume at 25° C. of 1000 g of this solution is 763 ml and the weight/volume concentration of glyphosate is 602 g a.e./l.
A series of aqueous solutions of glyphosate MEA salt, having a range of glyphosate a.e. concentrations, are prepared by the general procedure of Example 1. Specific gravity is measured for each solution.
[…] Cloud point is a measure of the maximum temperature at which a given aqueous composition containing a surfactant and a salt at defined concentrations forms a single-phase solution. Above the cloud point, the surfactant separates from the solution, initially as a hazy or cloudy dispersion, and, upon standing, as a distinct phase generally rising to the surface of the solution. Cloud point is determined by heating the composition until the solution becomes cloudy, and then allowing the composition to cool, with agitation, while its temperature is continuously monitored. A temperature reading taken when the solution clears is a measure of cloud point.

[2] = cited from earlier work
[3] = Glyphosate a.e. weight/volume concentration of salt solution; assay type: physicochemical; conditions: for weight/volume concentration of glyphosate: 25° C., 46.0% by weight glyphosate a.e.; for glyphosate a.e. contained in 1 liter of solution: 30% a.e. by weight solution at 20° C.; for more glyphosate a.e. per liter than IPA salt solution: equal a.e. weight concentration (30% a.e. by weight, 20° C.)
Description: Thus 1 liter of 30% a.e. by weight glyphosate potassium salt solution at 20° C. contains approximately 376 g glyphosate a.e./l, whereas 1 liter of 30% a.e. by weight glyphosate IPA salt solution at 20° C. contains approximately 347 g glyphosate a.e./l. In other words, at equal a.e. weight concentration, the potassium salt solution delivers about 8% more glyphosate a.e. per liter.
Similarly, 1 liter of 30% a.e. by weight glyphosate MEA salt solution at 20° C. contains approximately 371 g glyphosate a.e./l. Therefore at equal a.e. weight concentration, the MEA salt solution delivers about 7% more glyphosate a.e. per liter than an IPA salt solution.
In a 1 liter glass vessel with magnetic stirrer are mixed 479.2 g glyphosate acid, technical grade (assay 96%), 166.0 g monoethanolamine and water to 1000 g. Reaction of the glyphosate acid with the monoethanolamine to form the MEA salt of glyphosate is exothermic. The reaction mixture is allowed to cool to room temperature. The specific gravity (20/15.6° C.) of the resulting 62.6% by weight aqueous solution of glyphosate MEA salt, containing 46.0% by weight glyphosate a.e., is measured and found to be 1.32. The density of the solution at 25° C. is […], thus the volume at 25° C. of 1000 g of this solution is 763 ml and the weight/volume concentration of glyphosate is 602 g a.e./l.

[4] = Viscosity of glyphosate salt solutions and compositions; assay type: physicochemical; conditions: 25° C.; 46% a.e. by weight solution without surfactant
Description: Specific gravity (20/15.6° C.), viscosity at 25° C. and cloud point are recorded for each composition prepared as shown in Table 5. Cloud point is a measure of the maximum temperature at which a given aqueous composition containing a surfactant and a salt at defined concentrations forms a single-phase solution. Above the cloud point, the surfactant separates from the solution, initially as a hazy or cloudy dispersion, and, upon standing, as a distinct phase generally rising to the surface of the solution. Cloud point is determined by heating the composition until the solution becomes cloudy, and then allowing the composition to cool, with agitation, while its temperature is continuously monitored. A temperature reading taken when the solution clears is a measure of cloud point.
The maximum surfactant concentration attainable in practice in an aqueous concentrate composition containing glyphosate salt at 540 g a.e./l is compared for MEA and IPA salts. This is determined by adding a selected surfactant in increments to a 46% a.e. by weight aqueous solution of the glyphosate salt until the glyphosate weight/volume concentration falls from its initial level (565 g a.e./l for IPA salt, 602 g a.e./l for MEA salt) to 540 g a.e./l. […] When the maximum attainable surfactant concentration is reached, viscosity is measured at 25° C. […]

[5] = Solubility in water; assay type: physicochemical; conditions: 20° C.; for solubility in pure water: weight of salt per weight of solution
Description: Solubility in water of the potassium and MEA salts of glyphosate is believed not to be recorded in prior art but is readily determined by procedures familiar to those skilled in the art. Similarly, aqueous solutions of these salts at concentrations greater than about 40% by weight are believed not to have been specifically disclosed, thus any unusual or unpredicted properties of such solutions have not been publicly known. Concentrations expressed as percent by weight herein relate to parts by weight of salt or acid equivalent per 100 parts by weight of solution.
The solubility of the MEA salt is very similar to the solubility of the IPA salt.

[6] = Maximum attainable surfactant concentration at 540 g a.e./l glyphosate; assay type: physicochemical
Description: The maximum surfactant concentration attainable in practice in an aqueous concentrate composition containing glyphosate salt at 540 g a.e./l is compared for MEA and IPA salts. This is determined by adding a selected surfactant in increments to a 46% a.e. by weight aqueous solution of the glyphosate salt until the glyphosate weight/volume concentration falls from its initial level (565 g a.e./l for IPA salt, 602 g a.e./l for MEA salt) to 540 g a.e./l. The study is conducted using either Surfactant A or Surfactant F of Table 3 above. When the maximum attainable surfactant concentration is reached, viscosity is measured at 25° C.

[7] = 20/18.6° C., 30% a.e. by weight monobasic salt solution
[8] = 20/15.6° C., solution containing 46.0% by weight glyphosate a.e.
[9] = MEA salt solution 29.9% a.e. by weight, IPA salt solution 30.2%

In the case of `O=C(O)CNCP(=O)(O)O`, the “Specific Gravity” value [1, 7] is reported as 1.1814.
For `CCN.O=C(O)CNCP(=O)(O)O`, the “Specific Gravity” value [1, 7] was 1.1599.
With `CCCN.O=C(O)CNCP(=O)(O)O` the “Specific Gravity” value [1, 7] was 1.1429.
For `O=C(O)CNCP(=O)(O)O` [Glyphosate, N-phosphonomethylglycine], the solubility in water ([2]; 25° C.) is listed as 1.16 % by weight.
In the case of `CC(C)N.O=C(O)CNCP(=O)(O)O` [glyphosate IPA salt, isopropylammonium salt of glyphosate], the Specific Gravity [1, 8] is reported as 1.24, the “Specific Gravity” value [1, 7] is reported as 1.1554 and the Specific Gravity [1, 9] is reported as 1.1566. For the same compound, the “weight/volume concentration of glyphosate” value [3] was 565 g a.e./l, the “glyphosate a.e. contained in 1 liter of solution” value (from here on “glyphosate a.e. contained”) [3] was “approximately 347 g glyphosate a.e./l” and the viscosity [4] was 165 cPs. The “limit of solubility in aqueous solution” value ([2]; only slightly higher than about 62% by weight) was over 62 % by weight.
In the case of `O=C(O)CNCP(=O)(O)O` [glyphosate MEA salt, monoethanolammonium salt of glyphosate], the “solubility in pure water as glyphosate acid equivalent” value [5] is reported as “about 47 % a.e. by weight”, the “solubility in pure water as glyphosate acid equivalent” value ([5]; listed as MEA salt) is reported as “about 47 % a.e. by weight” and the “solubility in pure water” value [5] is reported as “about 64 % by weight”. For the same compound, the Specific Gravity [1, 8] was 1.32, the “Specific Gravity” value ([1]; 20/18.6° C., 30% a.e. by weight monobasic salt solution, listed as monoethanolammonium (MEA)) was 1.2357 and the “specific gravity higher than that of 30.2% IPA salt solution” value ([1]; 29.9% a.e. by weight MEA salt solution) was 3.7%. For the same compound, the Specific Gravity [1, 9] was 1.1991, the “specific gravity compared with corresponding IPA salt solution” value ([1]; all concentrations, FIG. 1) was “significantly higher” and the “weight/volume concentration of glyphosate” value [3] was 602 g a.e./l. For the same compound, the “glyphosate a.e. contained” value [3] was “approximately 371 g glyphosate a.e./l”, the “more glyphosate a.e. per liter than IPA salt solution” value [3] was “about 7%” and the viscosity [4] was 88 cPs. For the same compound, the “surfactant concentration relative to the maximum attainable using the IPA salt” value [6] was “more than 2.5 times”.
With `O=C(O)CNCP(=O)(O)O` [glyphosate potassium salt] the “solubility in pure water as glyphosate acid equivalent” value ([5]; listed as potassium salt, potassium salt) was “about 44 % a.e. by weight”, the “solubility in pure water as glyphosate acid equivalent” value ([5]; potassium salt) was “about 44 % a.e. by weight” and the “solubility in pure water” value ([5]; potassium salt) was “about 54 % by weight”. For the same compound, the “Specific Gravity” value ([1]; 20/18.6° C., 30% a.e. by weight monobasic salt solution, potassium salt) was 1.2539, the “glyphosate a.e. contained” value ([3]; potassium salt) was “approximately 376 g glyphosate a.e./l” and the “more glyphosate a.e. per liter than IPA salt solution” value ([3]; potassium salt) was “about 8%”.
For `CN` [methylammonium], the “Specific Gravity” value [1, 7] was 1.1667.
For `C[S+](C)C.O=C([O-])CNCP(=O)(O)O` [trimethylsulfonium (TMS)], the “Specific Gravity” value [1, 7] was 1.1904.
